# Assay results from patent US11076594B2, “Pyrazolone compound or salt thereof, preparation method therefor, herbicide composition and use thereof” (QINGDAO KINGAGROOT CHEMICAL COMPOUNDS CO., LTD., priority 2015, dated 2021).
# Key:
# Assay type in all cases: in vivo
# [1] = system: wheat; assay: wheat field test, crop selectivity, greenhouse spray at 4 leaf stage; conditions: 250 g/ha of the active substance; 4 weeks after treatment
# Method in brief: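 Read-out: fresh weight control rate, scored 4 weeks after a post-emergence spray. Treatment at 4 leaf stage (2-3 weeks after sowing); compound dissolved in acetone, with methyl oleate emulsion, diluted with water.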
# [2] = system: chickweed; assay: wheat field resistant broadleaf weed control, greenhouse spray at 4 leaf stage; parameters: key: Level 10: completely dead; Level 9: above 95% growth control rate; Level 8: above 90% growth control rate; Level 7: above 80% growth control rate; Level 6: above 70% growth control rate; Level 5: above 60% growth control rate; Level 4: above 50% growth control rate; Level 3: above 20% growth control rate; Level 2: 5%-20% growth control rate; Level 1: below 5% growth control rate; conditions: 250 g/ha of the active substance; 4 weeks after treatment; ALS inhibitor resistant
# Procedure: (§1) The activity level standard of harmful plant destruction (i.e. growth control rate) is as follows:
# (§2) The above described growth control rate is fresh weight control rate.
# (§3) The seeds of alopecurus japonicas, flixweed, shepherd's purse, corn gromwell, chickweed, beckmannia syzigachne, and annual ryegrass and wheat seeds were put into a plastic pot loaded with soil, and then covered with 0.5-2 cm soil, the seeds were allowed to grow in good greenhouse environment. The test plants were treated at 4 leaf stage 2-3 weeks after sowing. The test compounds of the present invention were dissolved in acetone respectively, then added with methyl oleate emulsion and diluted by certain amount of water to certain concentration. The solution was sprayed to the plant with a sprayer. Then the plants were cultured for 4 weeks in greenhouse.
# [3] = system: shepherd's purse; assay: as above; parameters: key: Level 10: completely dead; Level 9: above 95% growth control rate; Level 8: above 90% growth control rate; Level 7: above 80% growth control rate; Level 6: above 70% growth control rate; Level 5: above 60% growth control rate; Level 4: above 50% growth control rate; Level 3: above 20% growth control rate; Level 2: 5%-20% growth control rate; Level 1: below 5% growth control rate; conditions: 250 g/ha of the active substance; 4 weeks after treatment; ALS inhibitor resistant
# Procedure: as §1, §2, §3
# [4] = system: flixweed; assay: as above; parameters: key: Level 10: completely dead; Level 9: above 95% growth control rate; Level 8: above 90% growth control rate; Level 7: above 80% growth control rate; Level 6: above 70% growth control rate; Level 5: above 60% growth control rate; Level 4: above 50% growth control rate; Level 3: above 20% growth control rate; Level 2: 5%-20% growth control rate; Level 1: below 5% growth control rate; conditions: 250 g/ha of the active substance; 4 weeks after treatment; ALS inhibitor resistant
# Procedure: as §1, §2, §3
# [5] = system: corn gromwell; assay: as above; parameters: key: Level 10: completely dead; Level 9: above 95% growth control rate; Level 8: above 90% growth control rate; Level 7: above 80% growth control rate; Level 6: above 70% growth control rate; Level 5: above 60% growth control rate; Level 4: above 50% growth control rate; Level 3: above 20% growth control rate; Level 2: 5%-20% growth control rate; Level 1: below 5% growth control rate; conditions: 250 g/ha of the active substance; 4 weeks after treatment; ALS inhibitor resistant
# Procedure: as §1, §2, §3
# [6] = system: rice; assay: post-emergence stage experiment, crop (Table 1); conditions: post-emergence spray at 4-5 leaf stage, 250 g/ha active ingredient with 450 kg/ha water, rated after 3 weeks in greenhouse
# Method in brief: (§4)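 Post-emergence spray: compounds dissolved in acetone, Tween 80 added, diluted with water, applied to plants at 4-5 leaf stage. Plants kept 3 wk in greenhouse; activity scored as fresh-weight control rate.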
# [7] = system: echinochloa; assay: weed control effect in post-emergence stage (Table 1); parameters: key: Level 10: completely dead; Level 9: above 95% growth control rate; Level 8: above 90% growth control rate; Level 7: above 80% growth control rate; Level 6: above 70% growth control rate; Level 5: above 60% growth control rate; Level 4: above 50% growth control rate; Level 3: above 20% growth control rate; Level 2: 5%-20% growth control rate; Level 1: below 5% growth control rate; conditions: post-emergence spray at 4-5 leaf stage, 250 g/ha active ingredient with 450 kg/ha water, rated after 3 weeks in greenhouse
# Method in brief: as §4
# [8] = system: crab grass; assay: as above; parameters: key: Level 10: completely dead; Level 9: above 95% growth control rate; Level 8: above 90% growth control rate; Level 7: above 80% growth control rate; Level 6: above 70% growth control rate; Level 5: above 60% growth control rate; Level 4: above 50% growth control rate; Level 3: above 20% growth control rate; Level 2: 5%-20% growth control rate; Level 1: below 5% growth control rate; conditions: post-emergence spray at 4-5 leaf stage, 250 g/ha active ingredient with 450 kg/ha water, rated after 3 weeks in greenhouse
# Method in brief: as §4
# [9] = system: bidens bipinnata; assay: as above; parameters: key: Level 10: completely dead; Level 9: above 95% growth control rate; Level 8: above 90% growth control rate; Level 7: above 80% growth control rate; Level 6: above 70% growth control rate; Level 5: above 60% growth control rate; Level 4: above 50% growth control rate; Level 3: above 20% growth control rate; Level 2: 5%-20% growth control rate; Level 1: below 5% growth control rate; conditions: post-emergence spray at 4-5 leaf stage, 250 g/ha active ingredient with 450 kg/ha water, rated after 3 weeks in greenhouse
# Method in brief: as §4
# [10] = system: foxtail; assay: as above; parameters: key: Level 10: completely dead; Level 9: above 95% growth control rate; Level 8: above 90% growth control rate; Level 7: above 80% growth control rate; Level 6: above 70% growth control rate; Level 5: above 60% growth control rate; Level 4: above 50% growth control rate; Level 3: above 20% growth control rate; Level 2: 5%-20% growth control rate; Level 1: below 5% growth control rate; conditions: post-emergence spray at 4-5 leaf stage, 250 g/ha active ingredient with 450 kg/ha water, rated after 3 weeks in greenhouse
# Method in brief: as §4
# [11] = system: Indian mallow; assay: as above; parameters: key: Level 10: completely dead; Level 9: above 95% growth control rate; Level 8: above 90% growth control rate; Level 7: above 80% growth control rate; Level 6: above 70% growth control rate; Level 5: above 60% growth control rate; Level 4: above 50% growth control rate; Level 3: above 20% growth control rate; Level 2: 5%-20% growth control rate; Level 1: below 5% growth control rate; conditions: post-emergence spray at 4-5 leaf stage, 250 g/ha active ingredient with 450 kg/ha water, rated after 3 weeks in greenhouse
# Method in brief: as §4
# [12] = system: rorippa indica; assay: as above; parameters: key: Level 10: completely dead; Level 9: above 95% growth control rate; Level 8: above 90% growth control rate; Level 7: above 80% growth control rate; Level 6: above 70% growth control rate; Level 5: above 60% growth control rate; Level 4: above 50% growth control rate; Level 3: above 20% growth control rate; Level 2: 5%-20% growth control rate; Level 1: below 5% growth control rate; conditions: post-emergence spray at 4-5 leaf stage, 250 g/ha active ingredient with 450 kg/ha water, rated after 3 weeks in greenhouse
# Method in brief: as §4
# [13] = system: wheat; assay: post-emergence stage experiment, crop (Table 1); conditions: post-emergence spray at 4-5 leaf stage, 250 g/ha active ingredient with 450 kg/ha water, rated after 3 weeks in greenhouse
# Method in brief: as §4
# [14] = system: corn; assay: post-emergence stage experiment, crop (Table 1); conditions: post-emergence spray at 4-5 leaf stage, 250 g/ha active ingredient with 450 kg/ha water, rated after 3 weeks in greenhouse
# Method in brief: as §4
Structure (SMILES),"Wheat (activity level, crop damage) [1]",chickweed weed controlling effect (activity level) [2],shepherd's purse weed controlling effect (activity level) [3],flixweed weed controlling effect (activity level) [4],corn gromwell weed controlling effect (activity level) [5],"effect on crop, Rice (level) [6]","weed control effect, Echinochloa (level) [7]","weed control effect, Crab grass (level) [8]","weed control effect, Bidens bipinnata (level) [9]","weed control effect, Green foxtail (level) [10]","weed control effect, Indian mallow (level) [11]","weed control effect, Rorippa indica (level) [12]","effect on crop, Wheat (level) [13]","effect on crop, Corn (level) [14]"
Cc1nn(C)cc1C(=O)Oc1c(C(=O)c2ccc(C(F)(F)F)c(N3CCCCCC3=O)c2Cl)cnn1C [Compound 052],0,10,10,10,10,1 (Level 1: below 5% growth control rate),5 (Level 5: above 60% growth control rate),4 (Level 4: above 50% growth control rate),1 (Level 1: below 5% growth control rate),1 (Level 1: below 5% growth control rate),10,10,0,1 (Level 1: below 5% growth control rate)
CCOc1c(C(=O)Oc2c(C(=O)c3ccc(C(F)(F)F)c(N4CCCCCC4=O)c3Cl)c(C)nn2C)cnn1C [Compound 056],0,10,10,10,10,3 (Level 3: above 20% growth control rate),5 (Level 5: above 60% growth control rate),3 (Level 3: above 20% growth control rate),5 (Level 5: above 60% growth control rate),1 (Level 1: below 5% growth control rate),10,10,0,0
Cc1nn(C)cc1C(=O)Oc1c(C(=O)c2ccc(C(F)(F)F)c(N3CCCCCC3=O)c2Cl)c(C)nn1C [Compound 058],0,10,10,10,10,2 (Level 2: 5%-20% growth control rate),4 (Level 4: above 50% growth control rate),1 (Level 1: below 5% growth control rate),4 (Level 4: above 50% growth control rate),1 (Level 1: below 5% growth control rate),10,10,0,1 (Level 1: below 5% growth control rate)
CCOc1c(C(=O)Oc2c(C(=O)c3ccc(C(F)(F)F)c(N4CCCCCC4=O)c3Cl)c(C3CC3)nn2C)cnn1C [Compound 060],0,10,10,10,10,1 (Level 1: below 5% growth control rate),5 (Level 5: above 60% growth control rate),3 (Level 3: above 20% growth control rate),7 (Level 7: above 80% growth control rate),1 (Level 1: below 5% growth control rate),10,10,0,0
Cn1cc(C(=O)Oc2c(C(=O)c3ccc(C(F)(F)F)c(N4CCCCCC4=O)c3Cl)c(C3CC3)nn2C)cn1 [Compound 061],0,10,10,10,10,1 (Level 1: below 5% growth control rate),5 (Level 5: above 60% growth control rate),4 (Level 4: above 50% growth control rate),7 (Level 7: above 80% growth control rate),1 (Level 1: below 5% growth control rate),10,10,0,1 (Level 1: below 5% growth control rate)
Cc1cnn(-c2c(C(F)(F)F)ccc(C(=O)c3cnn(C)c3OC(=O)c3cn(C)nc3C)c2Cl)c1 [Compound 082],0,10,10,10,10,3 (Level 3: above 20% growth control rate),10,6 (Level 6: above 70% growth control rate),4 (Level 4: above 50% growth control rate),10,9 (Level 9: above 95% growth control rate),10,0,3 (Level 3: above 20% growth control rate)
